From ChEMBL document CHEMBL4619745, “Identification of 2-((2,3-dihydrobenzo[b][1,4]dioxin-6-yl)amino)-N-phenylpropanamides as a novel class of potent DprE1 inhibitors” (Bioorg Med Chem Lett, 2020)
In brackets after ≈: the same amount, converted by molar mass.

Key:
[1] = test system: Mycobacterium tuberculosis; assay: Antimycobacterial activity against Mycobacterium tuberculosis H37Rv overexpressing DprE1; format: functional
[2] = test system: Mycobacterium tuberculosis; assay: Ratio of MIC for Mycobacterium tuberculosis H37Rv overexpressing DprE1 to MIC for Mycobacterium tuberculosis H37Rv; format: functional

## CC(Nc1ccc2c(c1)OCCO2)C(=O)Nc1ccc(Br)cc1 (racemic)
[1]
  MIC: 62.5 µM (≈ 23.6 µg/mL)
[2]
  Ratio: 8
